Values quoted from earlier work, collected in US6486152B1, “Topical carbamazepine formulations and methods of use” (Taro Pharmaceutical Industries Ltd., priority 1997, dated 2002).

How the values were obtained:
psoriatic erythroderma = details: HIV positive patient

solubility in acetone (acetone): soluble | solubility in alcohols (alcohols): soluble | solubility in propylene glycol (propylene glycol): soluble | solubility in water (water): practically insoluble | mood (psoriatic erythroderma; systemic (ingested) carbamazepine): affected
SMILES: NC(=O)N1c2ccccc2C=Cc2ccccc21 [Carbamazepine, 5-carbamoyl-5H-dibenz[b,f]azepine]
psoriatic erythroderma condition during first intake (psoriatic erythroderma; accidentally ingested 200-400 mg/day for two weeks): exhibited improvement | psoriatic erythroderma condition after stopping the medication (psoriatic erythroderma; after they stopped taking the medication): flared up again | psoriatic erythroderma condition on second intake (psoriatic erythroderma; intentionally took the medication a second time): improved once again
